Assay: Stability of Tc-99m labeled compound, labeling purity by HPLC
Format: physicochemical
Conditions: for radiochemical purity: cysteine and VB1, until 4 hours (Table 5)
Protocol: 2 mL of Tc-99m was added dropwise to a lyophilized vial including 0.1 mg of GP-104, 15 μg of SnCl2, and 10 μg of cysteine, the vial was allowed to stand at room temperature for 10 minutes, and the reaction was terminated by adjusting pH to 7 using a NaOH solution. Labeling purity was confirmed to be 93.21% by HPLC (analysis conditions: Luna C18 250×4.6 mm, phosphate buffer:acetonitrile (100:0, 0 to 5 minutes; 80:20, 5 to 10 minutes; 80:20, 17 minutes; 100:0, 17.1 minutes). 100:0. 20 min), 1.0 mL/min, UV=280 nm).
In order to confirm the effect of cysteine addition after the reaction, the following experiment was performed: 0.1 mg of GP-104 was dissolved in water for injection, the pH was adjusted to about 3.5 when 10 μL of SnCl2 (1.5 mg/mL) and 2 mL of Tc-99m were added thereto, and the resulting mixture was allowed to stand at room temperature for 10 minutes. The reaction was terminated by adjusting the pH to 7 using a NaOH solution and 10 μL of cysteine (1.0 mg/mL). Labeling purity was confirmed to be 91.4% using HPLC in the same manner as in Example 2-7.
After 0.1 mg of GP-104 was dissolved in water for injection, pH was adjusted to about 3.5 and the resulting solution was allowed to stand at room temperature for 10 minutes when 10 μL of SnCl2 (1.5 mg/mL), 10 μL of cysteine (1.0 mg/mL) and 2 mL of Tc-99m were added thereto, and the reaction was terminated by adjusting the pH to 7 using a NaOH solution. Labeling purity was confirmed to be 94.84% using HPLC in the same manner as in Example 2-7.
HCl and NaOH was additionally added dropwise to the solution of Example 2-8 to perform a stability evaluation by adjusting the final pH of the solution to acidic (pH 5.5) and basic (pH 8.5) conditions, and labeling purity was confirmed using HPLC in the same manner as in Example 2-7.
HCl and NaOH was additionally added dropwise to the solution of Example 2-9 to perform a stability evaluation by adjusting the final pH of the solution to acidic (pH 5.5) and basic (pH 8.5) conditions, and labeling purity was confirmed using HPLC in the same manner as in Example 2-7.
HCl and NaOH was additionally added dropwise to the solution of Example 2-10 to perform a stability evaluation by adjusting the final pH of the solution to acidic (pH 5.5) and basic (pH 8.5) conditions, and labeling purity was confirmed using HPLC in the same manner as in Example 2-7.
0.1 mg of GP-105 was dissolved in water for injection, the pH was adjusted to about 3.5 when 10 μL of SnCl2 (1.5 mg/mL) and 2 mL of Tc-99m were added thereto, and the resulting mixture was allowed to stand at room temperature for 10 minutes. The reaction was terminated by adjusting the pH to 7 using a NaOH solution and 10 μL of cysteine (1.0 mg/mL). Labeling purity was confirmed to be 98.1% using HPLC in the same manner as in Example 2-7.
HCl and NaOH was additionally added dropwise to the solution of Example 2-12 to perform a stability evaluation by adjusting the final pH of the solution to acidic (pH 5.5) and basic (pH 8.5) conditions, and labeling purity was confirmed using HPLC in the same manner as in Example 2-7.
HCl and NaOH was additionally added dropwise to the solution of Example 2-13 to perform a stability evaluation by adjusting the final pH of the solution to acidic (pH 5.5) and basic (pH 8.5) conditions, and labeling purity was confirmed using HPLC in the same manner as in Example 2-7.
HCl and NaOH was additionally added dropwise to the solution of Example 2-14 to perform a stability evaluation by adjusting the final pH of the solution to acidic (pH 5.5) and basic (pH 8.5) conditions, and labeling purity was confirmed using HPLC in the same manner as in Example 2-7.

Purity (165 nmol cysteine, acidic conditions, after 2 hours (Table 4)): ≤ 90%
Purity (165 nmol cysteine, basic conditions, until 2 hours (Table 4)): < 90%
Purity (165 nmol cysteine, neutral conditions, even after 4 hours (Table 4)): ≥ 90%
purity (HPLC) (Ex 3-3, addition of cysteine after reaction, pH 3, 0 hour): 82.63%
purity (HPLC) (Ex 3-3, addition of cysteine after reaction, pH 3, 1 hour): 70.01%
purity (HPLC) (Ex 3-3, addition of cysteine after reaction, pH 3, 2 hours): 52.58%
purity (HPLC) (Ex 3-3, addition of cysteine after reaction, pH 3, 4 hours): 30.38%
purity (HPLC) (Ex 3-3, addition of cysteine after reaction, pH 7, 0 hour): 91.4%
purity (HPLC) (Ex 3-3, addition of cysteine after reaction, pH 7, 1 hour): 91.42%
purity (HPLC) (Ex 3-3, addition of cysteine after reaction, pH 7, 2 hours): 91.1%
purity (HPLC) (Ex 3-3, addition of cysteine after reaction, pH 7, 3 hours): 90.3%
purity (HPLC) (Ex 3-3, addition of cysteine after reaction, pH 7, 4 hours): 90.19%
purity (HPLC) (Ex 3-3, addition of cysteine before reaction, pH 3, 1 hour): 92.7%
purity (HPLC) (Ex 3-3, addition of cysteine before reaction, pH 3, 2 hours): 84.17%
purity (HPLC) (Ex 3-3, addition of cysteine before reaction, pH 3, 3 hours): 76.77%
purity (HPLC) (Ex 3-3, addition of cysteine before reaction, pH 3, 4 hours): 69.34%
purity (HPLC) (Ex 3-3, addition of cysteine before reaction, pH 7, 0 hour): 94.84%
purity (HPLC) (Ex 3-3, addition of cysteine before reaction, pH 7, 1 hour): 94.43%
purity (HPLC) (Ex 3-3, addition of cysteine before reaction, pH 7, 2 hours): 97.66%
purity (HPLC) (Ex 3-3, addition of cysteine before reaction, pH 7, 4 hours): 97.75%
radiochemical purity (acidic conditions): ≥ 90%
radiochemical purity (basic conditions): ≥ 80%
radiochemical purity (pH of 7): ≥ 98%
Purity (pH of 7 regardless of the timing of cysteine addition, even after 4 hours (text to Table 3)): ≥ 90%
purity (HPLC) (solution of Example 2-8 (165 nmol cysteine), pH 5.5, 0 hr): 95.26%
purity (HPLC) (solution of Example 2-8 (165 nmol cysteine), pH 5.5, 2 hr): 91.45%
purity (HPLC) (solution of Example 2-8 (165 nmol cysteine), pH 5.5, 4 hr): 89.28%
purity (HPLC) (solution of Example 2-8 (165 nmol cysteine), pH 7, 0 hr): 95.26%
purity (HPLC) (solution of Example 2-8 (165 nmol cysteine), pH 7, 2 hr): 91.19%
purity (HPLC) (solution of Example 2-8 (165 nmol cysteine), pH 7, 4 hr): 91.61%
purity (HPLC) (solution of Example 2-8 (165 nmol cysteine), pH 8.5, 0 hr): 95.26%
purity (HPLC) (solution of Example 2-8 (165 nmol cysteine), pH 8.5, 2 hr): 79.83%
purity (HPLC) (solution of Example 2-8 (165 nmol cysteine), pH 8.5, 4 hr): 51.77%
radiochemical purity (HPLC) (solution of Example 2-9 (82.5 nmol cysteine + 82.5 nmol VB1), pH 5.5, 0 hr): 100%
radiochemical purity (HPLC) (solution of Example 2-9 (82.5 nmol cysteine + 82.5 nmol VB1), pH 5.5, 2 hr): 92.72%
radiochemical purity (HPLC) (solution of Example 2-9 (82.5 nmol cysteine + 82.5 nmol VB1), pH 5.5, 4 hr): 91.20%
radiochemical purity (HPLC) (solution of Example 2-9 (82.5 nmol cysteine + 82.5 nmol VB1), pH 7, 0 hr): 100%
radiochemical purity (HPLC) (solution of Example 2-9 (82.5 nmol cysteine + 82.5 nmol VB1), pH 7, 2 hr): 98.63%
radiochemical purity (HPLC) (solution of Example 2-9 (82.5 nmol cysteine + 82.5 nmol VB1), pH 7, 4 hr): 98.18%
radiochemical purity (HPLC) (solution of Example 2-9 (82.5 nmol cysteine + 82.5 nmol VB1), pH 8.5, 0 hr): 100%
radiochemical purity (HPLC) (solution of Example 2-9 (82.5 nmol cysteine + 82.5 nmol VB1), pH 8.5, 2 hr): 83.08%
radiochemical purity (HPLC) (solution of Example 2-9 (82.5 nmol cysteine + 82.5 nmol VB1), pH 8.5, 4 hr): 80.97%
radiochemical purity (HPLC) (solution of Example 2-10 (82.5 nmol cysteine + 82.5 nmol VB6), pH 5.5, 0 hr): 97.24%
radiochemical purity (HPLC) (solution of Example 2-10 (82.5 nmol cysteine + 82.5 nmol VB6), pH 5.5, 2 hr): 90.29%
radiochemical purity (HPLC) (solution of Example 2-10 (82.5 nmol cysteine + 82.5 nmol VB6), pH 5.5, 4 hr): 90.65%
radiochemical purity (HPLC) (solution of Example 2-10 (82.5 nmol cysteine + 82.5 nmol VB6), pH 7, 0 hr): 97.24%
radiochemical purity (HPLC) (solution of Example 2-10 (82.5 nmol cysteine + 82.5 nmol VB6), pH 7, 2 hr): 95.61%
radiochemical purity (HPLC) (solution of Example 2-10 (82.5 nmol cysteine + 82.5 nmol VB6), pH 7, 4 hr): 96.25%
radiochemical purity (HPLC) (solution of Example 2-10 (82.5 nmol cysteine + 82.5 nmol VB6), pH 8.5, 0 hr): 97.24%
radiochemical purity (HPLC) (solution of Example 2-10 (82.5 nmol cysteine + 82.5 nmol VB6), pH 8.5, 2 hr): 95.61%
radiochemical purity (HPLC) (solution of Example 2-10 (82.5 nmol cysteine + 82.5 nmol VB6), pH 8.5, 4 hr): 91.19%
radiochemical purity (HPLC) (solution of Example 2-14 (82.5 nmol cysteine + 82.5 nmol VB6), pH 5.5, 0 hr): 100%
radiochemical purity (HPLC) (solution of Example 2-14 (82.5 nmol cysteine + 82.5 nmol VB6), pH 5.5, 2 hr): 97.24%
radiochemical purity (HPLC) (solution of Example 2-14 (82.5 nmol cysteine + 82.5 nmol VB6), pH 5.5, 4 hr): 95.61%
radiochemical purity (HPLC) (solution of Example 2-14 (82.5 nmol cysteine + 82.5 nmol VB6), pH 7, 0 hr): 100%
radiochemical purity (HPLC) (solution of Example 2-14 (82.5 nmol cysteine + 82.5 nmol VB6), pH 7, 2 hr): 98.56%
radiochemical purity (HPLC) (solution of Example 2-14 (82.5 nmol cysteine + 82.5 nmol VB6), pH 7, 4 hr): 98.2%
radiochemical purity (HPLC) (solution of Example 2-14 (82.5 nmol cysteine + 82.5 nmol VB6), pH 8.5, 0 hr): 100%
radiochemical purity (HPLC) (solution of Example 2-14 (82.5 nmol cysteine + 82.5 nmol VB6), pH 8.5, 2 hr): 92.21%
radiochemical purity (HPLC) (solution of Example 2-14 (82.5 nmol cysteine + 82.5 nmol VB6), pH 8.5, 4 hr): 89.62%
Compound: O=C(O)C[C@H](NC(=O)[C@@H]1CCCN(C(=O)CCC2CCNCC2)C1)c1cncc(OCCNC(=O)CN2CCN3CCN(CC(=O)O)CC(=O)[O][99Tc+]([O]C(=O)C3)[O]C(=O)C2)c1 [[Tc-99m]GP-104]
